This is an account of results in PMC6554663, “Pharmaceutical Effects of Inhibiting the Soluble Epoxide Hydrolase in Canine Osteoarthritis” (Frontiers in Pharmacology, 2019).

For data set [1], the system named is aged beagle dogs with OA. The experiment in a line: Pain and function assessment (modified CBPI questionnaire) in arthritic dogs. The format is in vivo, dog. The procedure:
The study was conducted as a blinded, parallel matched-group design. Dogs were randomized into groups based on pretreatment pain scores and each group was randomly assigned a treatment. Prior to randomization, each dog was assessed for arthritis by radiograph to assess the severity of OA by presence of osteophytes, subchondral sclerosis or joint effusion each scored on a scale of 0 (least) to 3 (worst) for each of 12 joints. Severity of the radiograph score was included in the randomization protocol and distributed between the groups, and there were no statistical differences between the averages of each group. Individual radiograph scores can be found in Supplementary Table S2. […] Compounds were dissolved in PEG300 to a concentration of 2.4 mg/mL (1 mg/kg) and 12 mg/mL (5 mg/kg) and administered as approximately 5 mL in size 12 gelatin capsules (Torpac) administered once daily on days 1 through 5. Vehicle group consisted of 5 mL PEG300 in capsule. Concurrent medications were not allowed and not needed during the study.
Pain and function were assessed by a questionnaire answered by blinded technicians based on observation of study animals housed at InterVivo. The survey was adapted from the canine brief pain inventory (CBPI), which was developed based on clinical questionnaires in which owners score the function and pain level of their pets with existing pain conditions ([Brown et al., 2007]). Modifications to the questionnaire attempted to account for differences between owner pain evaluation of pets and pain evaluation of laboratory dogs by technical staff. For survey administration, blinded technicians attempted to elicit objective behavior-specific measures of function and pain level across a variety of normal canine behaviors (e.g., walking, trotting, galloping, rearing, and stair-climbing, etc.). For this, one technician was responsible for soliciting the relevant behaviors from a dog using encouragement and/or food rewards, while the evaluating technician scored function and observable pain using the modified CBPI questionnaire. Subjects were tested daily on Days -7 through -3, to develop baseline scores, and again on Days 1 through 5 administered 1.5 h after dosing. Dosing occurred in the morning, and observations were recorded 1.5 h after dosing, to limit time-of-day variability. Questions are listed in Supplementary Table S3. […]
Canine pain and function data were analyzed using ANOVA, linear mixed effects model, with Tukey adjustment in R and repeated measures ANOVA. Correlations coefficients were calculated in Graphpad Prism using the non-parametric Spearman correlation coefficient. In vitro experiments were analyzed using ANOVA in Graphpad Prism. […]

In data set [2] the test system is aged beagle dogs with OA. Put plainly: Tolerability, adverse events and body weight in the dog study. The format is in vivo. The procedure:
The study was conducted as a blinded, parallel matched-group design. Dogs were randomized into groups based on pretreatment pain scores and each group was randomly assigned a treatment. Prior to randomization, each dog was assessed for arthritis by radiograph to assess the severity of OA by presence of osteophytes, subchondral sclerosis or joint effusion each scored on a scale of 0 (least) to 3 (worst) for each of 12 joints. Severity of the radiograph score was included in the randomization protocol and distributed between the groups, and there were no statistical differences between the averages of each group. Individual radiograph scores can be found in Supplementary Table S2. […] Vehicle group consisted of 5 mL PEG300 in capsule. Concurrent medications were not allowed and not needed during the study.

The structures appear in SMILES notation. “Also recorded” adds a separate entry of the source.

Regarding `O=C(Nc1ccc(OC(F)(F)F)cc1)N[C@H]1CC[C@H](Oc2ccc(C(=O)O)cc2)CC1` [EC1728, trans-4-{4-[3-(4-trifluoromethoxy-phenyl)-ureido]-cyclohexyloxy}-benzoic acid], the “function scores compared to the other groups (trend)” value in the data set on aged beagle dogs with OA [1] (5 mg/kg oral once daily) is “tended to have increased function scores”. The “pain compared to placebo / vehicle control” value in the data set on aged beagle dogs with OA [1] (5 mg/kg oral once daily for 5 days, p < 0.05) was “significantly reduced pain; also recorded: significantly less pain”. The increase in function in the data set with aged beagle dogs with OA [1] (5 mg/kg oral once daily, after 5-days of dosing) was 16%. In addition, the “reduction in pain compared to predose values (maximum effect)” value in the data set on aged beagle dogs with OA [1] (5 mg/kg oral once daily, day 4, average) is recorded as 44%.
As to `CN(C(=O)N[C@H]1CC[C@H](Oc2ccc(C(=O)O)cc2)CC1)c1ccc(OC(F)(F)F)cc1` [EC3039, trans-4-{4-[3-methyl-3-(4-trifluoromethoxy-phenyl)-ureido]-cyclohexyloxy}-benzoic acid], the melting point is 92.4 to 94.7 °C. Besides, the “health case noted during treatment: relation to treatment” value in the data set with aged beagle dogs with OA [2] (EC3039 1 mg/kg, individual dogs, 1 mg/kg) is recorded as “EC3039 – 1mg/kg / Not Related; also recorded: EC3039 – 1mg/kg / Unlikely Related”. Further, the “health case noted during treatment: relation to treatment” value with aged beagle dogs with OA [2] (EC3039 5 mg/kg, individual dog, moist dermatitis of ventral neck) is “EC3039 – 5mg/kg / Not Related”.

By melting point is commonly meant the temperature of the solid-liquid transition.
